Results published in patent publication US20260256751A1, “COMBINATION OF BETA-2-ADRENERGIC RECEPTOR AGONISTS AND GLP-1 RECEPTOR AGONISTS FOR USE IN TREATING HYPERGLYCAEMIA” (ATROGI AB, priority 2023, published 2026).

What was measured:
[1] = system: differentiated L6-myotubes; experiment: cAMP production relative to isoprenaline (Biological example 2 of WO 2019/053427); assay type: cell-based; conditions: 0.25 h, compound at 10 μM, activity relative to isoproterenol at 10 μM
Outline: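 Values are cAMP levels relative to isoprenaline at equal concentration (final 1×10^−5 M for both). Stimulation lasted 15 min in differentiated L6 myotubes, using HBSS buffer (pH 7.4) containing 1 mM IBMX, 5 mM HEPES and 1% BSA.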

[2] = system: differentiated L6-myotubes; experiment: Glucose uptake screen (Biological example 1 of WO 2019/053427); assay type: cell-based; conditions: compound at 10 μM, activity relative to isoproterenol at 10 μM, read-out: Biological example 1 of WO 2019/053427 (GU)
Outline: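 Uptake was read out as ^3H-2-deoxyglucose (50 nM, 10 min) radioactivity in NaOH lysates. Beforehand, overnight-starved, differentiated L6 myotubes received compound at 1×10^−5 M with ICI-118551 present for 1 h 40 min, followed by fresh agonist for a further 20 min in glucose-free medium.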

## O[C@@H](CNCCC[C@H]1CC[C@H](OCc2ccccc2)CC1)c1cncc(F)c1 [Compound 276, (R)-1-(5-fluoro-3-pyridyl)-2-{3-[(1r,4S)-4-(benzyloxy)cyclohexyl]pro-pylamino}-1-ethanol]
[1]
  Emax at 10 µM: < 25%
[2]
  Emax at 10 µM: 25 to 50%

## CC1(C)CCC[C@H]([C@H](O)c2ccccc2F)N1 [Compound 177, (R)-[(R)-6,6-dimethyl-2-piperidyl](o-fluorophenyl)methanol]
[1]
  Emax at 10 µM: < 25%
[2]
  Emax at 10 µM: 50 to 75%

## CO[C@H]1CC[C@H](C[C@H]2CC[C@H]([C@@H](O)c3cncc(F)c3)N2)CC1 [Compound 340, (S)-[(2R,5R)-5-{[(1r,4R)-4-methoxycyclohexyl]methyl}-2-pyrrolidinyl](5-fluoro-3-pyridyl)methanol]
[1]
  Emax at 10 µM: < 25%
[2]
  Emax at 10 µM: 25 to 50%

## CC1(C)C[C@@H]([C@H](O)c2cncc(F)c2)N1 [Compound 216, (R)-[(S)-4,4-dimethyl-2-azetidinyl](5-fluoro-3-pyridyl)methanol]
[1]
  Emax at 10 µM: < 25%
[2]
  Emax at 10 µM: 25 to 50%

## CC(C)(C[C@H]1CC[C@@H](NC(=O)OC(C)(C)C)CC1)NC[C@H](O)c1cccc(F)c1 [Compound 449]
[1]
  Emax at 10 µM: < 25%
[2]
  Emax at 10 µM: 50 to 75%

## CC(C)(NC[C@H](O)c1cccc(F)c1)[C@H]1CC[C@@H](OCc2ccccc2)CC1 [Compound 280, (R)-1-(m-fluorophenyl)-2-{1-methyl-1-[(1s,4S)-4-(benzyloxy)cyclohexyl]eth-ylamino}-1-ethanol]
[1]
  Emax at 10 µM: < 25%
[2]
  Emax at 10 µM: > 75%

## CNS(=O)(=O)[C@H]1CC[C@@H](CC(C)(C)NC[C@H](O)c2cncc(F)c2)CC1 [Compound 495, (R)-2-{1,1-dimethyl-2-[(1s,4S)-4-(methylaminosulfonyl)cyclohexyl]ethylamino}-1-(5-fluoro-3-pyridyl)-1-ethanol]
[1]
  Emax at 10 µM: < 25%
[2]
  Emax at 10 µM: 50 to 75%

## CCCCNCC(O)c1ccncc1 (centres unmarked) [Compound 48, 2-(butylamino)-1-(4-pyridyl)-1-ethanol]
[1]
  Emax at 10 µM: < 25%
[2]
  Emax at 10 µM: 25 to 50%

## CCCCNC[C@H](O)c1ccc(F)cc1O [Compound 81, (R)-2-(butylamino)-1-(4-fluoro-2-hydroxyphenyl)-1-ethanol]
[1]
  Emax at 10 µM: < 25%
[2]
  Emax at 10 µM: 50 to 75%

## O[C@@H](c1cccc(F)c1)C12CCC(COCc3ccc(OC(F)(F)F)cc3)(CC1)N2 [Compound 487, (S)-(m-fluorophenyl)(4-{[(p-trifluoromethoxyphenyl)methoxy]methyl}-7-azabicylco[2.2.1]hept-1-yl)methanol]
[1]
  Emax at 10 µM: < 25%
[2]
  Emax at 10 µM: < 25%

## CO[C@H]1CC[C@@H](CCNC[C@H](O)c2cncc(F)c2)CC1 [Compound 238, (R)-1-(5-fluoro-3-pyridyl)-2-{2-[(1s,4S)-4-methoxycyclohexyl]ethyl-amino}-1-ethanol]
[1]
  Emax at 10 µM: < 25%
[2]
  Emax at 10 µM: > 75%

## Oc1ccc(C(O)CNC2CCCC2)cc1 (centres unmarked) [Compound 10, p-[2-(cyclopentylamino)-1-hydroxyethyl]phenol]
[1]
  Emax at 10 µM: < 25%
[2]
  Emax at 10 µM: 50 to 75%

## COc1ccc(C[C@@H]2CC[C@H]([C@H](O)c3cccc(F)c3)N2)cc1 [Compound 373, (R)-{(2R,5S)-5-[(p-methoxyphenyl)methyl]-2-pyrrolidinyl}(m-fluorophenyl)methanol]
[1]
  Emax at 10 µM: 25 to 50%
[2]
  Emax at 10 µM: > 75%

## CO[C@H]1CCC[C@@H](C(C)(C)NC[C@H](O)c2cccc(F)c2)C1 [Compound 256]
[1]
  Emax at 10 µM: 25 to 50%
[2]
  Emax at 10 µM: > 75%

## CC1(C)CC[C@H]([C@@H](O)c2ccc(F)cc2)N1 [Compound 172, (S)-[(R)-5,5-dimethyl-2-pyrrolidinyl](p-fluorophenyl)methanol]
[1]
  Emax at 10 µM: < 25%
[2]
  Emax at 10 µM: < 25%

## CC(=O)N(Cc1ccccc1)[C@H]1CC[C@H](C[C@@H]2CC[C@H]([C@@H](O)c3cccc(F)c3)N2)CC1 [Compound 481, N-[(1S,4r)-4-({(2S,5R)-5-[(S)-(m-fluorophenyl)hydroxymethyl]-2-pyrrolidinyl}methyl)cyclohexyl]-N-benzylacetamide]
[1]
  Emax at 10 µM: < 25%
[2]
  Emax at 10 µM: < 25%
